Values after ≈ are worked out from the molar mass of the structure shown.
Columns and labels:
[1] = system: Enterococcus faecalis; parameters: method as in PMID 37687129, PMID 7622440; conditions: cited from earlier work
[2] = system: C. albicans ATCC10231 biofilm formation; assay: Anti-biofilm activity assessment (crystal violet); assay type: cell-based, Candida albicans; conditions: for inhibition of biofilm formation (in words): data not shown
Method: Anti-biofilm activity assessment: The effect of compounds on biofilms formation was determined on C. albicans ATCC 10231 strain. Anti -biofilm assays were conducted using a previously reported methodology with small modifica tions.9 The assay was carried out in 96 - well round-bottom polystyrene microtiter plates. Cells wer e harvested from overnight grown cultures, washed twice with sterile phosphate -buffered saline (PBS; Sigma -Aldrich, Munich, Germany), and resuspended in RPMI 1640 medium (Sigma -Aldrich) containing 2% glucose (w/v) at a concentration of 1 × 10^5 CFU/mL. C. albicans suspension was incubated with 0.5 MIC, 1 MIC, and 2 MIC compounds concentration in 200.0 μL final volume per well for 48 h at 37 °C to allow biofilm formation. Biofilm growth was analyzed by crystal violet (CV) staining of adherent cells and the a bsorbance at 590.0 nm was read on a Tecan Infinite 200 Pro multiplate reader (Tecan Group Ltd., Männedorf, Switzerland). […]

[3] = system: human lung fibroblast cell line (MRC-5); assay: Cytotoxicity evaluation by MTT assay; assay type: cell-based
Source text: (§1) 3. Bioactivity and Toxicity Assays
(§2) Antimicrobial assay: According to the standard broth micro-dilution assays, following the Standards of European Committee on Antimicrobial Susceptibility Testing (v 7.3.1: Method for the determination of broth dilution minimum inhibitory concentrations of antifungal agents for yeasts) for Candida spp., and according to the standard broth micro-dilution assays, recommended by the National Committee for Clinical Laboratory Standards (M07-A8) for bacteria MIC values of compounds were determinate. Compounds were dissolved in DMSO at a concentration of 50 mg/mL, and the highest tested concentration was 250 µg/mL. The inoculums were 1x10^5 colony forming units (CFU/mL), for Candida species, and bacteria species, 5x10^5 colony forming units (CFU/mL). The MIC value was recorded as the lowest concentration that inhibited the growth after 24 h at 37 °C. Additionally, 5 µL from each well of 96 well plates was transferred to Luria Agar (LA) plates for bacteria and Sabouraud agar (SAB) plates for Candida spp. and incubated for an additional 24 h at 37 °C, to determine MBC (Minimum bactericidal/fungicidal concentration) values. In Table 1. Are labeled compounds showing a difference in MBC and previously determined MIC values.
Cytotoxicity evaluation: Antiproliferative activity was tested by MTT assay (3-(4,5-dimethylthiazol-2-yl)-2,5-diphenyltetrazoliumbromide) on a human lung fibroblast cell line (MRC-5; ATCC collection). Pre-grown (24 h) cell monolayers (1x10^4 cells per well) in RPMI 1640 medium supplemented with 100 μg/mL streptomycin, 100 U/mL penicillin, and 10% (v/v) FBS (all from Sigma, Munich, Germany) containing the tested compounds at concentrations ranging from 5 to 20 μg/mL were incubated in a humidified atmosphere of 95% air and 5% CO2 at 37 °C for 48 h. The cell viability (extent of MTT reduction) was measured spectrophotometrically at 540 nm using the Epoch 2000 multiplate reader, and the cell survival was expressed as a percentage of the control (untreated cells). Cytotoxicity was expressed as the concentration of the compound inhibiting cell growth by 50% (IC 50). […]

[4] = system: various Streptococcus and Staphylococcus species; parameters: method as in PMID 37687129, PMID 7622440; conditions: cited from earlier work
[5] = system: B. subtilis ATCC6633; assay: Antimicrobial broth micro-dilution assay (MIC); assay type: cell-based; conditions: Bacillus subtilis; B. subtilis ATCC6633; 24 h at 37 °C; highest tested concentration 250 µg/mL; read-out: Minimum inhibitory concentration (MIC)
Source text: as §1
as §2, with “MIC values. […]” for “MIC values.”

[6] = system: S. aureus ATCC25923; assay: Antimicrobial broth micro-dilution assay (MIC); assay type: cell-based; conditions: Staphylococcus aureus; S. aureus ATCC25923; 24 h at 37 °C; highest tested concentration 250 µg/mL; read-out: Minimum inhibitory concentration (MIC)
Source text: as §1
as §2, with “MIC values. […]” for “MIC values.”

[7] = system: C. albicans ATCC10231; assay: Antimicrobial broth micro-dilution assay (MIC); assay type: cell-based; conditions: Candida albicans; C. albicans ATCC10231; 24 h at 37 °C; highest tested concentration 250 µg/mL; read-out: Minimum inhibitory concentration (MIC)
Source text: as §1
as §2, with “MIC values. […]” for “MIC values.”

[8] = system: S. aureus MRSA; assay: Antimicrobial broth micro-dilution assay (MIC); assay type: cell-based; conditions: Staphylococcus aureus; S. aureus MRSA; 24 h at 37 °C; highest tested concentration 250 µg/mL; read-out: Minimum inhibitory concentration (MIC)
Source text: as §1
as §2, with “MIC values. […]” for “MIC values.”

[9] = system: P. aeruginosa ATCC27853; assay: Antimicrobial broth micro-dilution assay (MIC); assay type: cell-based; conditions: Pseudomonas aeruginosa; P. aeruginosa ATCC27853; 24 h at 37 °C; highest tested concentration 250 µg/mL; read-out: Minimum inhibitory concentration (MIC)
Source text: as §1
as §2, with “MIC values. […]” for “MIC values.”

[10] = system: E. coli NCTC9001; assay: Antimicrobial broth micro-dilution assay (MIC); assay type: cell-based; conditions: Escherichia coli; E. coli NCTC9001; 24 h at 37 °C; highest tested concentration 250 µg/mL; read-out: Minimum inhibitory concentration (MIC)
Source text: as §1
as §2, with “MIC values. […]” for “MIC values.”

[11] = system: ergosterol in C. albicans; assay: Ergosterol biosynthesis assay; assay type: cell-based, Candida albicans; conditions: 0.5 MIC; Candida cells; UV profile
Method: Ergosterol biosynthesis assay: Ergosterol levels were measured according to the published procedure with some minor modifications. 10 Briefly, a sing le C. albicans colony from an overnight Sabouraud dextrose agar plate was used to inoculate 50 ml of Sabouraud dextrose broth containing 0.5 MIC concentrated compounds. Incubation was performed for 18 h at 37 °C on the rotary shaker at 180 rpm. Cells were harvested by centrifugation at 3000 rpm for 5 min and washed once with sterile distilled water. The net wet weight of the cell pellet was determined. Three milliliters of 25% alcoholic potassium hydroxide solution (25 g of KOH and 35 ml of sterile distill ed water, brought to 100 ml with 100% ethanol), was added to each pellet and vortex mixed for 1 min and incubated in an 85 °C water bath for 1 h. Tubes were cooled to room temperature and extraction of sterols was done with the addition of a mixture of 1 ml of sterile distilled water and 3 ml of n-heptane followed by vigorous vortex mixing for 3 min. The heptane layer was used for spectrophotometrically measuring ergosterol concentrations by scanning absorbance between 240 nm and 300 nm using Ultrospec 3300pro 573 (Amer sham Biosciences, Amersham, UK).

[12] = system: C. albicans ATCC 10231 hyphae formation; assay: Filamentation test on Candida (solid spider medium); assay type: cell-based, Candida albicans; conditions: for relative activity in inhibition of filament formation (in words): compared with 36 and 41, sub-inhibitory concentrations
Method: Filamentation test on Candida: Using solid composition, the effect of sorrentano ne […]
albicans cells from an overnight culture grown in Sabouraud dextrose broth medium at 37 °C with or without compounds were centrifuged for 10 minutes at maximum speed, and the pellet was washed several times with sterile PBS (phosphate -buffered saline). After it, the pellet was resuspended in 200 µL PBS, and 2 µL of cell suspension was poured over solid composition and incubated at 37 °C for 120 h. Morphological changes of C. albicans ATCC

[13] = system: Bacillus subtilis; parameters: method as in PMID 37687129, PMID 7622440; conditions: cited from earlier work
[14] = system: two S. aureus strains and B. subtilis ATCC6633; assay: Antimicrobial assay, Gram-positive bacteria; assay type: cell-based; conditions: from MIC values
Source text: as §1
as §2, with “MIC values. […]” for “MIC values.”

Compound	IC50 [1] [mg/L]	inhibition of biofilm formation (in words) [2]	inhibition of biofilm formation ([2]; sub-inhibitory concentration (0.5 times MIC), 48 h)	in vitro toxicity ranking (in words) ([3]; MRC-5 cells)	selectivity index (SI) ([3]; cytotoxicity versus antibiotic activity, calculation not described)	IC50 [4] [mg/L]	MIC [5] [mg/L]	MIC [6] [mg/L]	MIC [7] [mg/L]	MIC [8] [mg/L]	MIC [9] [mg/L]	MIC [10] [mg/L]	reduction of total amount of ergosterol (in words) [11]	filamentation (in words) ([12]; 0.5 times MIC, 120 h, C. albicans ATCC10231)	relative activity in inhibition of filament formation (in words) [12]	IC50 [13] [mg/L]	improvement of antibacterial activity compared to sorrentanone (7) [14]
C/C=C/C=C/C(=O)C1=C(C)C(=O)C(O)=C(C)C1=O [compound 7, sorrentanone]	128 (≈ 520 µM)	displayed inhibition of biofilm formation	60–77%	highest toxicity	1.12	16.0 to 64.0	62.5 (≈ 254 µM)	62.5 (≈ 254 µM)	125 (≈ 508 µM)	31.2 (≈ 127 µM)	> 250	> 250	most potent in reducing the total amount of ergosterol	already show filamentation after 120 h	less active	32.0 (≈ 130 µM)	
C=CCCCOC(=O)C1=C(C)C(=O)C(O)=C(C)C1=O [compound 39]		displayed inhibition of biofilm formation					15.6 (≈ 59 µM)	62.5 (≈ 236 µM)	62.5 (≈ 236 µM)	62.5 (≈ 236 µM)	> 250	> 250	most potent in reducing the total amount of ergosterol		less active		two- to four-fold improved activity
